Laboratory results taken from patent US9828375B2, “4-position substituted pyrazolopyrimidine derivative, and use thereof in drug preparation” (Guangxi Wuzhou Pharmaceuticals (Group) Co., Ltd., priority 2012, dated 2017).

Tests used:
[1] = tested on: human thyrophyma cell line TT; experiment: In vitro tumor cell proliferation inhibition (MTT): TT; format: cell-based
Excerpt: (§1) The purpose of the experiment was to test the inhibition activity of the compounds of the invention for in vitro human tumor cell proliferation by the methyl thiazolyl tetrazolium (MTT) colorimetry.
(§2) Main reagents: RPMI-1640, fetal bovine serum, pancreatin, etc. were purchased from Gibco BRL Company (Invitrogen Corporation, USA) and IMDM medium that was purchased from American Type Culture Collection (ATCC). Methyl thiazolyl tetrazolium (MTT) and dimethyl sulfoxide (DMSO) were products from Sigma Company (USA). Pyrazolopyrimidine derivatives were composed by the inventor. During in vitro experiment, 100% DMSO was prepared into 10 mM storage solution, the solution was stored in a refrigerator at −20° C. for future use, and was diluted to the required concentration with complete culture solution before use.
(§3) Cell line and culture: Human leukemia cell line MV4-11, Jurkat, K562, human thyrophyma cell line TT, human gastric carcinoma cell line MKN-45, human malignant melanoma cell lines A375 and A875, human pancreatic carcinoma cell line panc-1, human cervical carcinoma cell line HELA, human colorectal carcinoma cell line HCT116, etc. were purchased from American type culture collection and were preserved by this laboratory. All leukemia cell lines (except MV4-11), gastric carcinoma cell lines and thyrophyma cell lines were cultured in RPMI-1640 complete medium containing 10% fetal bovine serum, 100 U/mL penicillin and 100 μg/mL streptomycin at 37° C. in 5% CO2. The remaining cell lines were cultured in DMEM complete medium containing 10% fetal bovine serum (containing 20% MV4-11 cell), 100 U/mL penicillin and 100 µg/mL streptomycin at 37° C. in 5% CO2.
(§4) Cell suspension with cell concentration of 1-2×10^4/mL was adjusted with the complete cell medium and inoculated in a 96-well plate, with each well filled with 200 μl cell suspension that was cultured overnight. On the next day, supernatant was sucked and abandoned (supernatant was sucked upon centrifugation of suspension cells), and then cells were processed with test compounds at gradient concentrations respectively. Meanwhile, a negative control group free from drug and a solvent control group with equal volume were set, and the DMSO concentration was 0.1%. Each dose group was provided with three wells and cultured at 37° C. in 5% CO2. After 72 hours, 20 μl 5 mg/mL MTT reagent was added to each well, and cultured for another 2 to 4 hours, the supernatant was abandoned; 150 μL DMSO was added to each well again, vibrated and mixed evenly for 15 minutes; the absorbance (A) values (proportional to living cell amount) were determined with a microplate reader (λ=570 nm) and averaged. […] Experiment was repeated for 3 times at least. Experimental data were expressed with means, data statistics were tested by t, and P<0.05 means that difference has a statistical significance. The cell proliferation inhibition effects of all compounds as follows are expressed by IC50 or inhibition rate.

[2] = tested on: human malignant melanoma cell line A375; experiment: In vitro tumor cell proliferation inhibition (MTT): A375; format: cell-based
Excerpt: as §1, §2, §3, §4

Abl/Abl (T315I)(h) = experiment: Kinase inhibition activity test, isotope labeling: Abl; format: biochemical, human; conditions: test compound at a concentration of 10 μM
Protocol: The purpose of this experiment was to test the inhibitory activity of the compound of the invention for in vitro kinase with the isotope labeling method (the γ phosphate group on ATP was labeled). In this experiment, the in vitro activity inhibition of such kinases as FLT3, VEGFR2, FLT1, FLT4, RET, c-RAF, B-RAF, c-KIT, PDGFα, PDGFβ, FGFR2, FGFR1, EphA2, EphB2, SRC, ABL, ALK and Met was tested respectively. Staurosporine was reference molecule (or referred to as positive control). The kinase inhibition activity of the test compound was expressed by half-inhibitory concentration (IC50) or the kinase activity inhibition rate of the test compound at a concentration of 10 μM. The IC50 value could be obtained by calculating the kinase activity inhibition rate of the test compound at different concentrations.
20 mM 3-(N-morpholinyl)propanesulfonic acid (MOPS); 1 mM ethylenediaminetetraacetic acid (EDTA), 0.01% Brij 35 (Brij-35), 5% glycerol, 0.1% mercaptoethanol, 1 mg/mL bovine serum albumin (BSA), 10 mM manganous dichloride solution (MnCl2), 0.1 mg/mL glutamic acid/tyrosine (4:1) polypeptide (poly(Glu, Tyr)4:1), 50 μM EAIYAAPFAKKK (substrate of FLT3), 0.33 mg/mL myelin basic protein (substrate of VEGFR2), 250 μM KKKSPGEYVNIEFG (substrate of FLT1(h)), 500 μM GGEEEEYFELVKKKK (substrate of FLT4(h)), 250 μM KKKSPGEYVNIEFG (substrate of RET), 0.66 mg/mL myelin basic protein (substrate of C-RAF), 250 μM GGMEDIYFEFMGGKKK (substrate of c-Kit), 250 μM GGMEDIYFEFMGGKKK (substrate of PDGFα), 250 μM KKKSPGEYVNIEFG (substrate of FGFR1), […] GGEEEEYFELVKKKK (substrate of SRC), 50 μM EAIYAAPFAKKK (substrate of ABL), 250 μM KKKSPGEYVNIEFG (substrate of ALK), 250 μM KKKSPGEYVNIEFG (substrate of Met(h)), 10 mM magnesium acetate and γ-^33 P-ATP solution, stop buffer (3% phosphate buffer), washing buffer (75 mM phosphate solution), methanol, Filtermat A membrane, FLT3, VEGFR2, FLT3, VEGFR2, FLT1, FLT4, RET, c-RAF, B-RAF, c-KIT, PDGFRα, PDGFRβ, FGFR2, FGFR1, EphA2, EphB2, SRC, ABL, ALK, Met and other kinases, and the test compounds.
Buffers (8 mM MOPS with pH value of 7.0, 0.2 mM EDTA and 10 mM MnCl2), (5-10 mU) kinases to be tested (FLT3, VEGFR2, FLT1, FLT4, RET, c-RAF, B-RAF, c-KIT, PDGFRα, PDGFRβ, FGFR2, FGFR1, EphA2, EphB2, SRC, ABL, ALK and Met), substrates of kinases to be tested (refer to experimental materials), 10 mM magnesium acetate and γ-^33 P-ATP solution, and test compounds at different concentrations were added to a reaction tube orderly. […] Reaction was terminated with 5 μL 3% phosphate buffer finally, and 10 μL reaction solution was titrated to the Filtermat A membrane; solution was washed for 3 times with 75 mM phosphate solution with each time lasting 5 minutes, and then washed once with methanol. Finally, the Filtermat A membrane was dried, and scintillation counting was performed on the membrane, with scintillation count reflecting the phosphorylation degree of the substrates, so that the activity inhibition of kinase could be characterized.

Row | Compound | IC50 ([1]; Homo sapiens, 72 h) [nM] | IC50 ([2]; Homo sapiens, A-375, 72 hours) [µM] | Activity inhibition rate Abl/Abl (T315I)(h) (Abl/Abl (T315I)(h)) [%] | IC50 ([1]; 72 hours) [nM] | IC50 ([2]; 72 hours) [µM]
1 | O=C(Nc1ccc(C(F)(F)F)cc1)Nc1ccc(Oc2ncnc3[nH]ncc23)c(F)c1 [4a-9, 1-(4-((1H-pyrazolopyrimidine-4-yl)oxy)-3-fluorophenyl)-3-(4-(trifluoromethyl)phenyl)urea] |  |  | 15 | 1630 | < 50
2 | CC(C)(C)c1cc(NC(=O)Nc2ccc(Oc3ncnc4[nH]ncc34)cc2)n(-c2ccccc2)n1 [4a-24] |  |  | >50 | 1550 | 6.94
3 | CC(C)(C)c1cc(NC(=O)Nc2ccc(Sc3ncnc4[nH]ncc34)cc2)no1 [4c-3, 1-(4-(1H-pyrazolopyrimidine-4-sulfydryl)phenyl)-3-(5-tert-butylisoxazol-3-yl)urea] |  |  | >30 | 3000 to 10000 | < 50
4 | CC(C)(C)c1cc(NC(=O)Nc2ccc(Oc3ncnc4[nH]ncc34)c(F)c2)no1 [4a-31] |  |  | >50 | 943 | 3 to 10
5 | CC(C)(C)c1cc(NC(=O)Nc2ccc(Oc3ncnc4[nH]ncc34)cc2)no1 [4a-26] | 2120 | 3 to 10 | >50 |  | 
6 | O=C(Nc1cccc(Nc2ncnc3[nH]ncc23)c1)Nc1ccc(F)c(Cl)c1 [4b-1] |  | < 50 |  |  | 
7 | O=C(Nc1ccc(Oc2ncnc3[nH]ncc23)cc1)Nc1cccc(C(F)(F)F)c1 [4a-6] | 312 | 3.45 | 79 |  | 
8 | O=C(Nc1ccc(NC(=O)N2C=NC=C3NNC=C32)cc1)Nc1ccc(Cl)c(C(F)(F)F)c1 [4b-5, 1-(4-(1H-pyrazolopyrimidine-4-amido)phenyl)-3-(4-chloro-3-(trifluoromethyl)phenyl)urea] | 9480 |  |  |  | 
9 | CC(C)c1cccc(NC(=O)Nc2ccc(Oc3ncnc4[nH]ncc34)c(F)c2)c1 [4a-7, 1-(4-((1H-pyrazolopyrimidine-4-yl)oxy)-3-fluorophenyl)-3-(3-isopropylphenyl)urea] |  |  | 60 |  | < 50
10 | Cc1cc(C)c(NC(=O)Nc2ccc(NC(=O)N3C=NC=C4NNC=C43)cc2)c(C)c1 [4b-7, 1-(4-(1H-pyrazolopyrimidine-4-amido)phenyl)-3-(2,4,6-trimethylphenyl)urea] |  | < 50 |  |  | 
11 | C[C@H](NC(=O)Nc1ccc(Nc2ncnc3[nH]ncc23)cc1)c1ccccc1 [4b-4] |  |  |  |  | < 50
12 | 1-(4-((1H-pyrazolopyrimidine-4-yl)oxy)-3-fluorophenyl)-3-(3-trifluoromethoxy)phenyl)urea [4a-8] |  |  | 34 |  | 4.65
13 | O=C(Nc1ccc(Oc2ncnc3[nH]ncc23)cc1)Nc1ccc(N2CCOCC2)cc1 [4a-16, 1-(4-((1H-pyrazolopyrimidine-4-yl)oxy)phenyl)-3-(4-morpholinylphenyl)urea] |  | < 50 |  |  | 
14 | O=C(Nc1ccc(Oc2ncnc3[nH]ncc23)cc1)Nc1cc(C(F)(F)F)cc(C(F)(F)F)c1 [4a-12, 1-(4-((1H-pyrazolopyrimidine-4-yl)oxy)phenyl)-3-(3,5-bis(trifluoromethyl)phenyl)urea] |  |  | 78 |  | < 50

The next lines start with the values.

Row | IC50 ([1]; Homo sapiens, 72 h) [nM] | IC50 ([2]; Homo sapiens, A-375, 72 hours) [µM] | Activity inhibition rate Abl/Abl (T315I)(h) (Abl/Abl (T315I)(h)) [%] | IC50 ([1]; 72 hours) [nM] | IC50 ([2]; 72 hours) [µM] | Compound
15 | 9890 | < 50 |  |  |  | CC(C)n1ncc2c(Oc3ccc(NC(=O)Nc4cc(C(C)(C)C)on4)cc3)ncnc21 [5a-4, 1-(5-tert-butylisoxazol-3-yl)-3-(4-(1-isopropyl-(1H-pyrazolopyrimidine-4-yl)oxy)phenyl)urea]
16 | 3000 to 10000 | < 50 | >50 |  |  | O=C(Nc1ccc(Oc2ncnc3[nH]ncc23)cc1)Nc1cc(C(F)(F)F)on1 [4a-28]
17 | < 50000 | < 50 | 17 |  |  | O=C(Nc1ccc(Oc2ncnc3[nH]ncc23)cc1)Nc1ccc(C(F)(F)F)cc1 [4a-1]
18 |  | < 50 |  |  |  | COc1cccc(NC(=O)Nc2ccc(Nc3ncnc4[nH]ncc34)cc2)c1 [4b-3]
19 |  | < 50 |  |  |  | C[C@@H](NC(=O)Nc1ccc(Nc2ncnc3[nH]ncc23)cc1)c1ccccc1 [4b-2, (R)-1-(4-(1H-pyrazolopyrimidine-4-amido)phenyl)-3-(1-phenethyl)urea]
20 |  |  | 45 |  | < 50 | C[C@H](NC(=O)Nc1ccc(Oc2ncnc3[nH]ncc23)cc1)c1ccccc1 [4a-18, (S)-1-(4-((1H-pyrazolopyrimidine-4-yl)oxy)phenyl)-3-(1-phenethyl)urea]
21 |  |  | 19 |  | < 50 | 1-(4-((1H-pyrazolopyrimidine-4-yl)oxy)phenyl)-3-(methylcyclohexyl)urea [4a-20]
22 |  |  | 21 |  | < 50 | C[C@@H](NC(=O)Nc1ccc(Oc2ncnc3[nH]ncc23)cc1)c1ccccc1 [4a-19, (R)-1-(4-((1H-pyrazolopyrimidine-4-yl)oxy)phenyl)-3-(1-phenethyl)urea]
23 |  |  | 99 |  | < 50 | O=C(Nc1ccccc1)Nc1ccc(Oc2ncnc3[nH]ncc23)cc1 [4a-15, 1-(4-((1H-pyrazolopyrimidine-4-yl)oxy)phenyl)-3-phenylurea]
24 |  |  | 67 |  | < 50 | O=C(Nc1ccc(Oc2ncnc3[nH]ncc23)c(F)c1)Nc1ccc(Cl)c(C(F)(F)F)c1 [4a-10, 1-(4-((1H-pyrazolopyrimidine-4-yl)oxy)-3-fluorophenyl)-3-(4-chloro-3-(trifluoromethyl)phenyl)urea]
25 |  | < 50 | >30 |  |  | O=C(Nc1ccc(Sc2ncnc3[nH]ncc23)cc1)Nc1ccc(C(F)(F)F)cc1 [4c-1]
26 |  | < 50 |  |  |  | COc1ccc(NC(=O)Nc2ccc(NC(=O)N3C=NC=C4NNC=C43)cc2)cc1 [4b-6, 1-(4-(1H-pyrazolopyrimidine-4-amido)phenyl)-3-(4-methoxyphenyl)urea]
